In one assay the target is baNadD (Bacillus anthracis, UniProt C3L5T6). Nature of the assay: biochemical. The format is biochemical. The following applies: for inhibition at 50 µM: read-out: INHIBITION (%) B. anthracis.
In a further assay the target is ecNadD (Escherichia coli (strain K12), UniProt P0A752). Nature of the assay: biochemical. It is filed as biochemical. Particulars: for inhibition at 100 µM: read-out: INHIBITION (%) E. coli; for IC50: IC50 ecNadD.

SMILES strings stand for the structures. Like-named read-outs stand apart in the source and are kept apart here.

Sequence of baNadD (C3L5T6 whole entry, looked up): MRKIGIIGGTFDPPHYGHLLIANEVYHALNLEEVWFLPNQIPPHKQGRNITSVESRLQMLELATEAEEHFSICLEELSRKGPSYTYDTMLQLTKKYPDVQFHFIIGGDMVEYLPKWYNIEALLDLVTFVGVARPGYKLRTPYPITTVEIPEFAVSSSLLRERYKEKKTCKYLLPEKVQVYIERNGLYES

As to `O=[N+]([O-])c1cc(Cl)ccc1NCCCNS(=O)(=O)c1ccccc1` [compound 165], the “[…]. anthracis” value at baNadD stood at 0%. The “[…]. coli” value on ecNadD is reported as 4%.
On the same counts, the results for `O=C(O)CSc1nc2ccccc2n1CC(=O)O` [compound 169] are 0% and 3%.
On to `Cc1cc(C)cc(N/C=C2\C(=O)Nc3ccccc32)c1` [15_23], for which, on baNadD, the inhibition at 50 µM came to 32%. Besides, the inhibition at 100 µM at ecNadD stood at 10%.
For `Cn1nnnc1SCC(=O)Nc1ccc(Br)cc1Cl` [compound 108], on baNadD, the “[…]. anthracis” value is listed as 0%. For the same compound, at ecNadD, the “[…]. coli” value is reported as 9%.
The corresponding values for `O=C(O)CCCC(=O)Nc1nc2ccccc2s1` [compound 207] are 7% and 0%.
The corresponding values for `CC(=O)c1ccc(NS(=O)(=O)c2ccc(N)cc2)cc1` [compound 283] are 0% and 0%.
Regarding `Nc1c(C(=O)Nc2cccc(F)c2)sc2nc(-c3ccc(F)cc3)ccc12` [03_10], the inhibition at 50 µM on baNadD stood at 60%. The inhibition at 100 µM at ecNadD turned out to be 56%.
On to `O=C(O)c1cc(Cl)c(Cl)cc1C(=O)Nc1ccc(O)cc1` [compound 107], for which, on baNadD, the “[…]. anthracis” value stood at 0%. For the same compound, the “[…]. coli” value at ecNadD was 9%.
`O=c1/c(=C/c2ccc(O)cc2)sc2nc3cc(Br)cnc3n12` [compound 111]: the “[…]. anthracis” value at baNadD amounted to 6%. On ecNadD, the “[…]. coli” value is 9%.
For the compound `COc1ccc(-c2noc(COc3ccc(Cl)cc3Cl)n2)cc1` [compound 295], the “[…]. anthracis” value at baNadD is given as 11%. Besides, at ecNadD, the “[…]. coli” value is given as 0%.
With `O=C(O)CCC(=O)NCc1ccc(C(=O)O)cc1` [compound 238], on baNadD, the “[…]. anthracis” value stood at 14%. Further, the “[…]. coli” value at ecNadD is recorded as 0%.
On the same counts, the results for `O=C(O)CN(c1ccccc1)S(=O)(=O)c1ccccc1[N+](=O)[O-]` [compound 115] are 0% and 8%.
The corresponding values for `COC(=O)c1sc(NC(=O)/C=C/C(=O)O)nc1C` [compound 009] are 0% and 45%.
Consider `O=C(CCC(=O)Nc1ccccc1Br)N/N=C/c1c2ccccc2cc2ccccc12` [01_04], for which the IC50 at baNadD (read-out: IC50 baNadD) was 25 µM; at ecNadD, 15 µM. Also, the inhibition at 50 µM at baNadD was found to be 100%. Further, the inhibition at 100 µM on ecNadD came out at 79%.
Take `Cc1ccc(/C=N/NC(=O)CCC(=O)Nc2ccc(C)cc2)cc1` [01_14]: the inhibition at 50 µM on baNadD came out at 70%. Moreover, the inhibition at 100 µM on ecNadD amounted to 60%.
On to `O=C(O)c1nonc1NCn1cnnn1` [compound 116], for which the “[…]. anthracis” value on baNadD came to 5%. Also, the “[…]. coli” value on ecNadD came to 8%.
Turning to `O=[N+]([O-])c1cc2c(cc1/C=N/Nc1nnn[nH]1)OCO2` [compound 063], the “[…]. anthracis” value at baNadD is 81%. Also, the “[…]. coli” value on ecNadD came out at 14%.
On the same counts, the results for `CCn1c(CNc2ccc(F)cc2)nnc1SCC(N)=O` [compound 298] are 0% and 0%.
The corresponding values for `O=C(NCc1ccc(C(=O)O)cc1)Nc1ccc(Br)cc1Cl` [compound 245] are 0% and 0%.
The corresponding values for `COc1ccc(NS(=O)(=O)c2ccc(SC)cc2)cc1` [compound 103] are 0% and 9%.
As to `NC(=O)c1ccc(NC(=O)COc2ccc3ccccc3c2)cc1` [compound 097], on baNadD, the “[…]. anthracis” value is given as 63%. For the same compound, the “[…]. coli” value on ecNadD was 10%.
For the compound `Nc1c(C(=O)Nc2ccc(Cl)cc2F)sc2nc(-c3ccc(F)cc3)ccc12` [03_19], at baNadD, the inhibition at 50 µM amounted to 61%. Besides, the inhibition at 100 µM at ecNadD was determined as 32%.
Consider `O=C(O)CC(NC(=O)c1ccccc1NC(=O)c1ccco1)C(=O)O` (stereo not drawn) [compound 089], for which the “[…]. anthracis” value at baNadD was determined as 37%. Also, the “[…]. coli” value at ecNadD is listed as 10%.
The corresponding values for `O=C(CSc1ncnc2ccccc12)Nc1ccc2nsnc2c1` [compound 228] are 28% and 0%.
Turning to `Nc1[nH][nH]c(=O)c1/N=N/c1ccccc1F` [compound 254], on baNadD, the “[…]. anthracis” value was found to be 0%. The “[…]. coli” value at ecNadD is 0%.
Turning to `CSc1ccc(CNc2ccc(S(N)(=O)=O)cc2)cc1` [compound 150], the “[…]. anthracis” value on baNadD was 0%. For the same compound, the “[…]. coli” value on ecNadD is recorded as 5%.
In the case of `CC(=O)O/C(=C\c1cn(C(C)=O)c2ccccc12)C(=O)O` [compound 291], the “[…]. anthracis” value on baNadD is 0%. The “[…]. coli” value on ecNadD came to 0%.
Consider `COc1cccc(N/C=C2\C(=O)Nc3ccccc32)c1` [15_37], for which, on baNadD, the inhibition at 50 µM is 1%. Also, at ecNadD, the inhibition at 100 µM amounted to 4%.
Turning to `CCc1cccc(C)c1N/C=C1\C(=O)Nc2ccccc21` [15_41], on baNadD, the inhibition at 50 µM worked out at 13%. For the same compound, the inhibition at 100 µM on ecNadD worked out at 0%.
As for `O=[N+]([O-])c1ccc(/C=N\NS(=O)(=O)c2ccc(Cl)cc2)o1` [compound 057], the “[…]. anthracis” value on baNadD worked out at 28%. Moreover, on ecNadD, the “[…]. coli” value came out at 15%.
For the compound `O=C(O)c1cc([N+](=O)[O-])ccc1Sc1cccs1` [compound 005], the “[…]. anthracis” value at baNadD is listed as 44%. For the same compound, the “[…]. coli” value on ecNadD turned out to be 71%.
For the compound `Nc1c(C(=O)Nc2cc(Cl)cc(Cl)c2)sc2nc(-c3cccs3)ccc12` [03_03], the 50% inhibitory concentration (IC50) at baNadD (IC50 baNadD) was 21 µM. For the same compound, the inhibition at 50 µM on baNadD stood at 90%. At ecNadD, 64 µM corresponded to half-maximal inhibition (IC50) and the inhibition at 100 µM was found to be 93%.
For `O=C(O)c1cc(C(=O)O)c2cc(Oc3ccc4nc(C(=O)O)cc(C(=O)O)c4c3)ccc2n1` [compound 067], the “[…]. anthracis” value on baNadD is reported as 1%. Also, the “[…]. coli” value at ecNadD turned out to be 13%.
For the compound `Cc1cccc(C)c1N/C=C1\C(=O)Nc2ccccc21` [15_36], the inhibition at 50 µM on baNadD was 11%. For the same compound, the inhibition at 100 µM at ecNadD was found to be 4%.
For `O=C(Nc1ccccc1C(=O)O)c1ccc(Br)o1` [compound 036], the “[…]. anthracis” value at baNadD worked out at 0%. The “[…]. coli” value at ecNadD worked out at 20%.
As to `O=C1Nc2ccccc2/C1=C/Nc1ccccc1Br` [15_26], the inhibition at 50 µM at baNadD came to 8%. For the same compound, the inhibition at 100 µM on ecNadD was 8%.
`CSc1nc2nc(N)nc(N)c2s1` [compound 251]: the “[…]. anthracis” value on baNadD came to 0%. The “[…]. coli” value on ecNadD was found to be 0%.
For the compound `OCC#CCSc1nnc(-c2cccc(Br)c2)o1` [compound 255], the “[…]. anthracis” value on baNadD came out at 0%. Besides, the “[…]. coli” value on ecNadD amounted to 0%.
Take `CCSc1ccccc1C(=O)Nc1ccc(S(N)(=O)=O)cc1` [compound 121]: the “[…]. anthracis” value on baNadD was 0%. Besides, the “[…]. coli” value on ecNadD worked out at 8%.
For `NS(=O)(=O)c1ccc(CCNC(=O)COc2ccc(Cl)cc2Cl)cc1` [compound 101], the “[…]. anthracis” value at baNadD stood at 0%. Further, the “[…]. coli” value at ecNadD is recorded as 9%.
The corresponding values for `Cc1nnc(SCC(=O)Nc2ccc(Cl)cn2)[nH]c1=O` [compound 146] are 11% and 5%.
Regarding `S=C(N/N=C/c1ccccc1Cl)Nc1cc(Cl)ccc1Cl` [compound 002], on baNadD, the “[…]. anthracis” value turned out to be 85%. For the same compound, the “[…]. coli” value at ecNadD amounted to 76%.
In the case of `O=C1Nc2ccccc2/C1=C/NC1CCCCC1` [15_33], on baNadD, the inhibition at 50 µM was determined as 15%. At ecNadD, the inhibition at 100 µM came to 6%.
In the case of `O=C(O)c1cc(C(=O)O)cc(N2C(=O)c3ccc(C(=O)O)cc3C2=O)c1` [compound 134], the “[…]. anthracis” value on baNadD turned out to be 0%. For the same compound, the “[…]. coli” value at ecNadD was 6%.
Consider `Nc1c(C(=O)Nc2cccc(Cl)c2Cl)sc2nc(-c3cccs3)ccc12` [compound 003], for which the inhibition at 50 µM on baNadD came to 40%. On ecNadD, the inhibition at 100 µM stood at 73%.
Consider `Nc1nc(-c2ccc(NC(=O)c3ccc(Cl)cc3)cc2)cs1` [compound 022], for which the “[…]. anthracis” value on baNadD stood at 31%. In addition, at ecNadD, the “[…]. coli” value was 24%.
Turning to `O=C1Nc2ccccc2/C1=C/Nc1cccnc1` [15_15], the inhibition at 50 µM on baNadD is 10%. For the same compound, on ecNadD, the inhibition at 100 µM came out at 12%.
`CS(=O)(=O)N(CC(=O)Nc1ccccc1Br)c1ccc(Cl)cc1` [compound 163]: on baNadD, the “[…]. anthracis” value was 54%. The “[…]. coli” value at ecNadD is recorded as 4%.
`Cc1ccc(F)cc1NC(=O)CSCC(=O)O` [compound 025]: the “[…]. anthracis” value on baNadD came to 55%. Also, the “[…]. coli” value at ecNadD came out at 23%.
Turning to `Cc1ccc(N/C=C2\C(=O)Nc3ccccc32)c(Cl)c1` [15_19], the inhibition at 50 µM on baNadD was found to be 14%. In addition, the inhibition at 100 µM at ecNadD came to 11%.
On the same counts, the results for `O=C(CCC(=O)Nc1ccc(I)cc1)N/N=C/c1cccc(Br)c1` [01_06] are 54% and 78%.
In the case of `Cc1cccc(C(=O)NNC(=O)/C=C\C(=O)O)c1` [compound 120], the “[…]. anthracis” value at baNadD stood at 0%. Also, the “[…]. coli” value on ecNadD is 8%.
Turning to `O=C(CSc1nc2ccccc2[nH]1)Nc1nncs1` [compound 197], the “[…]. anthracis” value on baNadD was determined as 34%. For the same compound, the “[…]. coli” value at ecNadD came to 0%.
Regarding `Cc1cccc(N/C=C2\C(=O)Nc3ccccc32)n1` [15_20], on baNadD, the inhibition at 50 µM was 8%. The inhibition at 100 µM at ecNadD is 11%.
With `O=C(Nc1ccc(O)cc1)c1ccc(Cl)c(Cl)c1` [compound 086], on baNadD, the “[…]. anthracis” value was 0%. Further, the “[…]. coli” value at ecNadD is 11%.
Consider `O=C(O)c1cccc(COc2ccc(CO)cc2Cl)c1` [compound 175], for which the “[…]. anthracis” value at baNadD is given as 0%. On ecNadD, the “[…]. coli” value is 3%.
On to `C/C(=N/NC(=O)CCC(=O)Nc1ccc(Br)cc1)c1ccc(Br)cc1` [01_18], for which the inhibition at 50 µM on baNadD stood at 49%. Further, at ecNadD, the inhibition at 100 µM was 38%.
Regarding `Cc1noc(C)c1S(=O)(=O)Nc1ccc(Br)cc1` [compound 265], the “[…]. anthracis” value on baNadD is given as 4%. In addition, the “[…]. coli” value on ecNadD turned out to be 0%.
On the same counts, the results for `O=C(NCc1ccccn1)c1ccc(Cl)cc1Cl` [compound 294] are 0% and 0%.
The corresponding values for `O=C(NNC(=O)C1CC=CCC1C(=O)O)c1cccc([NH2+][O-])c1` (stereo not drawn) [compound 171] are 24% and 3%.
For the compound `O=C(CSc1nc2ccccc2[nH]1)Nc1cccc(C(=O)O)c1` [compound 248], the “[…]. anthracis” value on baNadD stood at 4%. For the same compound, at ecNadD, the “[…]. coli” value is 0%.

Source of the values: patent US8785499B2 (priority 2009, dated 2014).
